Twelve molecules from US20220340629A1, “Myosin Derived Peptides and Related Compounds with Anticoagulant Activities” (THE SCRIPPS RESEARCH INSTITUTE, priority 0001, published 2022) can be followed below.

Non-standard residues stand in square brackets, D forms with d. Residues, ends and D or L forms follow the SMILES beside them. NMeI = CC[C@H](C)[C@H](NC)C(=O)O; Nle = CCCC[C@H](N)C(=O)O

Sequence of skeletal muscle myosin-supported prothrombin activation by factors Xa and Va (P00742 41-179): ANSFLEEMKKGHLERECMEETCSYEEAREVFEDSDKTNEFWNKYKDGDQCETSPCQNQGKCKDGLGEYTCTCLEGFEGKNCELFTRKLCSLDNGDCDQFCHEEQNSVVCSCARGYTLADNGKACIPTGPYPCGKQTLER
Sequence of skeletal muscle myosin-supported prothrombin activation by factors Xa and Va (P00742 235-488): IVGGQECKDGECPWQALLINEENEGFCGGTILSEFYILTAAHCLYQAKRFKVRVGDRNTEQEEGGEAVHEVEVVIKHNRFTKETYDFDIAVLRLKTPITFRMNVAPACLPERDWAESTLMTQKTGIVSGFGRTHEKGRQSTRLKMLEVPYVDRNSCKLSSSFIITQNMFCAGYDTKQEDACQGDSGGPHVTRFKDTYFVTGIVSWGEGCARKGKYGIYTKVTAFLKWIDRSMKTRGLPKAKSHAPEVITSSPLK
Sequence of skeletal muscle myosin-supported prothrombin activation by factors Xa and Va (P12259 29-737 partner): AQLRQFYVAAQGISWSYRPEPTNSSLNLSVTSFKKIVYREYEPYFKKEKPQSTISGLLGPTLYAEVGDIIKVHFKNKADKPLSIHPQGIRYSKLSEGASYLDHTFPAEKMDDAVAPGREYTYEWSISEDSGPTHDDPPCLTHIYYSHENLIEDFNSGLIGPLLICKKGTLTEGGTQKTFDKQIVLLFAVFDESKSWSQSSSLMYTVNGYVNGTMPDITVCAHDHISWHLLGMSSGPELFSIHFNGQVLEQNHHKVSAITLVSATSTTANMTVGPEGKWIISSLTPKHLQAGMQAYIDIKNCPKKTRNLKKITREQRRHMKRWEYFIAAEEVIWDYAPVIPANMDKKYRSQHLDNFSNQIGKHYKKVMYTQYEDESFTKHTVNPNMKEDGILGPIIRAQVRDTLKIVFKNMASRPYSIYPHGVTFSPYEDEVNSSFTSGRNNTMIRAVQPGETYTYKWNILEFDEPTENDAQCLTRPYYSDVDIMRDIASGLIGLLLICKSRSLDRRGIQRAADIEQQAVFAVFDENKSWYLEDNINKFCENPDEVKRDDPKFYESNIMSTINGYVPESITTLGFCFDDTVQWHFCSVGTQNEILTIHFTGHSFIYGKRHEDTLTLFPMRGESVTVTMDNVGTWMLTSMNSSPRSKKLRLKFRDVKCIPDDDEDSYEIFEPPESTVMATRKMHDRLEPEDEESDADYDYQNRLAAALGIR
Sequence of skeletal muscle myosin-supported prothrombin activation by factors Xa and Va (P12259 1574-2224 partner): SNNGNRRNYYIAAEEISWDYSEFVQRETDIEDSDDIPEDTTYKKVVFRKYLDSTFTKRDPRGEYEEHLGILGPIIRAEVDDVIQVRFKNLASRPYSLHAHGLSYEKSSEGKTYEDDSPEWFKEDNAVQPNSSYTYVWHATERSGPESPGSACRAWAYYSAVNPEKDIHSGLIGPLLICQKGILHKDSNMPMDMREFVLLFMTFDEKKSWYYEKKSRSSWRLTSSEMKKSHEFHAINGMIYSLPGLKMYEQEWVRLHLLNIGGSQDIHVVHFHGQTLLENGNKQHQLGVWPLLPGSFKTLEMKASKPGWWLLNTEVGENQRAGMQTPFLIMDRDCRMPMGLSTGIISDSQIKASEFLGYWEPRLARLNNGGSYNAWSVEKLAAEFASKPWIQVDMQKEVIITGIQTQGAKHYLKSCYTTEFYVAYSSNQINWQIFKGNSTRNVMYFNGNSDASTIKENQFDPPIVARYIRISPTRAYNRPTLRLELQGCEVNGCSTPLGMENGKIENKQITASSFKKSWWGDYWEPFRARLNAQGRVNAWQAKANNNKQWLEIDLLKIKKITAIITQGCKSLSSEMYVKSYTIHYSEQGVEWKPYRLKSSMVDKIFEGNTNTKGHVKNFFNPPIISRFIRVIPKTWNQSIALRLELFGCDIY

One assay has as its target skeletal muscle myosin-supported prothrombin activation by factors Xa and Va (Homo sapiens, UniProt P00742). Kind of assay: Assay 1A: prothrombin activation by factor Xa/factor Va/myosin in purified system. It is filed as biochemical, human factors Xa and Va; rabbit skeletal muscle myosin. The note with it: purified system, prothrombin activation with myosin; read-out: 1A (+ myosin) IC50.
“QEEIKNMWAAFPPDVGGNVDYKNICYVITH (Ac-QEEIKNMWAAFPPDVGGNVDYKNICYVITH-NH2) [RLC133-162]”: the IC50 came to 25000 nM. Still for that read-out and setting: the figure for `CCCC[C@H](NC(=O)[C@H](Cc1c[nH]c2ccccc12)NC(=O)[C@@H]1CCCN1C(=O)[C@H](Cc1c[nH]c2ccccc12)NC(=O)[C@H](Cc1c[nH]cn1)NC(=O)[C@H](CCCCN)NC(=O)[C@@H](NC(=O)[C@H](CC(N)=O)NC(=O)[C@H](CCCC)NC(=O)[C@H](Cc1ccccc1)NC(=O)[C@H](CO)NC(=O)[C@H](CCCNC(=N)N)NC(=O)[C@@H](NC(=O)[C@H](CC(N)=O)NC(=O)[C@H](Cc1ccc(O)cc1)NC(=O)[C@H](CCC(N)=O)NC(=O)[C@@H](NC(=O)[C@H](CS)NC(=O)[C@H](Cc1ccccc1)NC(=O)[C@H]([C@@H](C)CC)N(C)C(=O)[C@H](C)N)[C@@H](C)CC)[C@@H](C)CC)C(C)C)C(=O)N[C@@H](CCCCN)C(N)=O` [HC192] (H-A[NMeI]FCIQYNIRSF[Nle]NVKHWPW[Nle]K-NH2; N-terminus assumed) is 2200 nM.

The assay is the same for the next values; noted with them: purified system; skeletal muscle myosin, factor Va 5 nM, factor Xa 0.2 nM, prothrombin 0.75 μM, 10 min; read-out: 1A (+myosin).
With `CC[C@H](C)[C@H](NC(=O)[C@H](C)N)C(=O)N[C@@H](Cc1ccccc1)C(=O)N[C@@H](C)C(=O)N[C@H](C(=O)N[C@@H](CCC(N)=O)C(=O)N[C@@H](Cc1ccc(O)cc1)C(=O)N[C@@H](CC(N)=O)C(=O)N[C@H](C(=O)N[C@@H](CCCNC(=N)N)C(=O)N[C@@H](CO)C(=O)N[C@@H](Cc1ccccc1)C(=O)N[C@@H](CCSC)C(=O)N[C@@H](CC(N)=O)C(=O)N[C@H](C(=O)N[C@@H](CCCCN)C(=O)N[C@@H](Cc1c[nH]cn1)C(=O)N[C@@H](Cc1c[nH]c2ccccc12)C(=O)N1CCC[C@H]1C(=O)N[C@@H](Cc1c[nH]c2ccccc12)C(=O)N[C@@H](CCSC)C(=O)N[C@@H](CCCCN)C(N)=O)C(C)C)[C@@H](C)CC)[C@@H](C)CC` [HC119] (H-AIFAIQYNIRSFMNVKHWPWMK-NH2; N-terminus assumed), the IC50 stood at 5200 nM. Regarding `CC[C@H](C)[C@H](NC(=O)[C@H](C)N)C(=O)N[C@@H](Cc1ccccc1)C(=O)N[C@@H](CS)C(=O)N[C@H](C(=O)N[C@@H](CCC(N)=O)C(=O)N[C@@H](Cc1ccc(O)cc1)C(=O)N[C@@H](CC(N)=O)C(=O)N[C@H](C(=O)N[C@@H](CCCNC(=N)N)C(=O)N[C@@H](CO)C(=O)N[C@@H](Cc1ccccc1)C(=O)N[C@@H](CCSC)C(=O)N[C@@H](CC(N)=O)C(=O)N[C@H](C(=O)N[C@@H](C)C(=O)N[C@@H](Cc1c[nH]cn1)C(=O)N[C@@H](Cc1c[nH]c2ccccc12)C(=O)N1CCC[C@H]1C(=O)N[C@@H](Cc1c[nH]c2ccccc12)C(=O)N[C@@H](CCSC)C(=O)N[C@@H](CCCCN)C(N)=O)C(C)C)[C@@H](C)CC)[C@@H](C)CC` [HC131] (H-AIFCIQYNIRSFMNVAHWPWMK-NH2; N-terminus assumed), the IC50 worked out at 2200 nM. Take `CC[C@H](C)[C@H](NC(=O)[C@H](C)N)C(=O)N[C@@H](Cc1ccccc1)C(=O)N[C@@H](CS)C(=O)N[C@@H](C)C(=O)N[C@@H](CCC(N)=O)C(=O)N[C@@H](Cc1ccc(O)cc1)C(=O)N[C@@H](CC(N)=O)C(=O)N[C@H](C(=O)N[C@@H](CCCNC(=N)N)C(=O)N[C@@H](CO)C(=O)N[C@@H](Cc1ccccc1)C(=O)N[C@@H](CCSC)C(=O)N[C@@H](CC(N)=O)C(=O)N[C@H](C(=O)N[C@@H](CCCCN)C(=O)N[C@@H](Cc1c[nH]cn1)C(=O)N[C@@H](Cc1c[nH]c2ccccc12)C(=O)N1CCC[C@H]1C(=O)N[C@@H](Cc1c[nH]c2ccccc12)C(=O)N[C@@H](CCSC)C(=O)N[C@@H](CCCCN)C(N)=O)C(C)C)[C@@H](C)CC` [HC120] (H-AIFCAQYNIRSFMNVKHWPWMK-NH2; N-terminus assumed): the IC50 was determined as 5200 nM.

Take `CC[C@H](C)[C@H](NC(=O)[C@H](C)N)C(=O)N[C@@H](Cc1ccccc1)C(=O)N[C@@H](CS)C(=O)N[C@H](C(=O)N[C@@H](CCC(N)=O)C(=O)N[C@@H](Cc1ccc(O)cc1)C(=O)N[C@@H](C)C(=O)N[C@H](C(=O)N[C@@H](CCCNC(=N)N)C(=O)N[C@@H](CO)C(=O)N[C@@H](Cc1ccccc1)C(=O)N[C@@H](CCSC)C(=O)N[C@@H](CC(N)=O)C(=O)N[C@H](C(=O)N[C@@H](CCCCN)C(=O)N[C@@H](Cc1c[nH]cn1)C(=O)N[C@@H](Cc1c[nH]c2ccccc12)C(=O)N1CCC[C@H]1C(=O)N[C@@H](Cc1c[nH]c2ccccc12)C(=O)N[C@@H](CCSC)C(=O)N[C@@H](CCCCN)C(N)=O)C(C)C)[C@@H](C)CC)[C@@H](C)CC` [HC123] (H-AIFCIQYAIRSFMNVKHWPWMK-NH2; N-terminus assumed): the IC50 was determined as 600 nM. On the same count and under the same terms, next, `CC[C@H](C)[C@H](NC(=O)[C@H](C)N)C(=O)N[C@@H](Cc1ccccc1)C(=O)N[C@@H](CS)C(=O)N[C@H](C(=O)N[C@@H](CCC(N)=O)C(=O)N[C@@H](Cc1ccc(O)cc1)C(=O)N[C@@H](CC(N)=O)C(=O)N[C@H](C(=O)N[C@@H](CCCNC(=N)N)C(=O)N[C@@H](CO)C(=O)N[C@@H](Cc1ccccc1)C(=O)N[C@@H](C)C(=O)N[C@@H](CC(N)=O)C(=O)N[C@H](C(=O)N[C@@H](CCCCN)C(=O)N[C@@H](Cc1c[nH]cn1)C(=O)N[C@@H](Cc1c[nH]c2ccccc12)C(=O)N1CCC[C@H]1C(=O)N[C@@H](Cc1c[nH]c2ccccc12)C(=O)N[C@@H](CCSC)C(=O)N[C@@H](CCCCN)C(N)=O)C(C)C)[C@@H](C)CC)[C@@H](C)CC` [HC128] (H-AIFCIQYNIRSFANVKHWPWMK-NH2; N-terminus assumed): 2000 nM.

`CC[C@H](C)[C@H](NC(=O)[C@H](C)N)C(=O)N[C@@H](Cc1ccccc1)C(=O)N[C@@H](CS)C(=O)N[C@H](C(=O)N[C@@H](CCC(N)=O)C(=O)N[C@@H](Cc1ccc(O)cc1)C(=O)N[C@@H](CC(N)=O)C(=O)N[C@H](C(=O)N[C@@H](CCCNC(=N)N)C(=O)N[C@@H](CO)C(=O)N[C@@H](Cc1ccccc1)C(=O)N[C@@H](CCSC)C(=O)N[C@@H](CC(N)=O)C(=O)N[C@H](C(=O)N[C@@H](CCCCN)C(=O)N[C@@H](Cc1c[nH]cn1)C(=O)N[C@@H](Cc1c[nH]c2ccccc12)C(=O)N1CCC[C@H]1C(=O)N[C@@H](Cc1c[nH]c2ccccc12)C(=O)N[C@@H](CCSC)C(=O)N[C@@H](C)C(N)=O)C(C)C)[C@@H](C)CC)[C@@H](C)CC` [HC137] (H-AIFCIQYNIRSFMNVKHWPWMA-NH2; N-terminus assumed): the IC50 came out at 5500 nM. On the same count and under the same terms, next, `CC[C@H](C)[C@H](NC(=O)[C@H](C)N)C(=O)N[C@@H](Cc1ccccc1)C(=O)N[C@@H](CS)C(=O)N[C@H](C(=O)N[C@@H](CCC(N)=O)C(=O)N[C@@H](Cc1ccc(O)cc1)C(=O)N[C@@H](CC(N)=O)C(=O)N[C@H](C(=O)N[C@@H](CCCNC(=N)N)C(=O)N[C@@H](CO)C(=O)N[C@@H](Cc1ccccc1)C(=O)N[C@@H](CCSC)C(=O)N[C@@H](CC(N)=O)C(=O)N[C@H](C(=O)N[C@@H](CCCCN)C(=O)N[C@@H](Cc1c[nH]cn1)C(=O)N[C@@H](C)C(=O)N1CCC[C@H]1C(=O)N[C@@H](Cc1c[nH]c2ccccc12)C(=O)N[C@@H](CCSC)C(=O)N[C@@H](CCCCN)C(N)=O)C(C)C)[C@@H](C)CC)[C@@H](C)CC` [HC133] (H-AIFCIQYNIRSFMNVKHAPWMK-NH2; N-terminus assumed): 1800 nM; `CC[C@H](C)[C@H](NC(=O)[C@H](C)N)C(=O)N[C@@H](Cc1ccccc1)C(=O)N[C@@H](CS)C(=O)N[C@H](C(=O)N[C@@H](CCC(N)=O)C(=O)N[C@@H](Cc1ccc(O)cc1)C(=O)N[C@@H](CC(N)=O)C(=O)N[C@H](C(=O)N[C@@H](CCCNC(=N)N)C(=O)N[C@@H](CO)C(=O)N[C@@H](Cc1ccccc1)C(=O)N[C@@H](CCSC)C(=O)N[C@@H](CC(N)=O)C(=O)N[C@H](C(=O)N[C@@H](CCCCN)C(=O)N[C@@H](Cc1c[nH]cn1)C(=O)N[C@@H](Cc1c[nH]c2ccccc12)C(=O)N1CCC[C@H]1C(=O)N[C@@H](C)C(=O)N[C@@H](CCSC)C(=O)N[C@@H](CCCCN)C(N)=O)C(C)C)[C@@H](C)CC)[C@@H](C)CC` [HC135] (H-AIFCIQYNIRSFMNVKHWPAMK-NH2; N-terminus assumed): 2700 nM; `CC[C@H](C)[C@H](NC(=O)[C@H](C)N)C(=O)N[C@@H](Cc1ccccc1)C(=O)N[C@@H](CS)C(=O)N[C@H](C(=O)N[C@@H](CCC(N)=O)C(=O)N[C@@H](Cc1ccc(O)cc1)C(=O)N[C@@H](CC(N)=O)C(=O)N[C@H](C(=O)N[C@@H](CCCNC(=N)N)C(=O)N[C@@H](CO)C(=O)N[C@@H](Cc1ccccc1)C(=O)N[C@@H](CCSC)C(=O)N[C@@H](CC(N)=O)C(=O)N[C@H](C(=O)N[C@@H](CCCCN)C(=O)N[C@@H](Cc1c[nH]cn1)C(=O)N[C@@H](Cc1c[nH]c2ccccc12)C(=O)N[C@@H](C)C(=O)N[C@@H](Cc1c[nH]c2ccccc12)C(=O)N[C@@H](CCSC)C(=O)N[C@@H](CCCCN)C(N)=O)C(C)C)[C@@H](C)CC)[C@@H](C)CC` [HC134] (H-AIFCIQYNIRSFMNVKHWAWMK-NH2; N-terminus assumed): 900 nM. For the molecule `CC[C@H](C)[C@H](NC(=O)[C@H](C)N)C(=O)N[C@@H](Cc1ccccc1)C(=O)N[C@@H](CS)C(=O)N[C@H](C(=O)N[C@@H](CCC(N)=O)C(=O)N[C@@H](Cc1ccc(O)cc1)C(=O)N[C@@H](CC(N)=O)C(=O)N[C@H](C(=O)N[C@@H](CCCNC(=N)N)C(=O)N[C@@H](CO)C(=O)N[C@@H](Cc1ccccc1)C(=O)N[C@@H](CCSC)C(=O)N[C@@H](C)C(=O)N[C@H](C(=O)N[C@@H](CCCCN)C(=O)N[C@@H](Cc1c[nH]cn1)C(=O)N[C@@H](Cc1c[nH]c2ccccc12)C(=O)N1CCC[C@H]1C(=O)N[C@@H](Cc1c[nH]c2ccccc12)C(=O)N[C@@H](CCSC)C(=O)N[C@@H](CCCCN)C(N)=O)C(C)C)[C@@H](C)CC)[C@@H](C)CC` [HC129] (H-AIFCIQYNIRSFMAVKHWPWMK-NH2; N-terminus assumed), the IC50 came out at 4200 nM.
